pIC50: −log10 of the molar value. Converted amounts (≈) assume the structure as drawn. Where two headings read alike, the source gives them in different places.
Key:
[1] = Solubility test; type: physicochemical
Outline: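 Dissolved concentration determined by LC/MS or SPE/MS (absolute calibration) in diluted filtrates, after 2 μL of 10 mmol/L DMSO stock was added to 198 μL JP 1st or JP 2nd fluid and equilibrated either 1 h with shaking at room temperature or 16 h standing at 25 °C.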

[2] = Metabolic stability test; type: in vitro ADME; details: human liver microsomes, 37° C., 30 minutes, NADPH
Outline: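 Parent compound was measured by LC/MS/MS or SPE/MS after a methanol/acetonitrile quench and reported as % remaining, with the 0 min sample set to 100%. Incubations ran 30 min at 37 °C in pH 7.4 Tris buffer containing pooled human liver microsomes at 0.5 mg protein/mL and 1 mmol/L NADPH.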

[3] = target: T1, CYP3A4 (Homo sapiens, UniProt P08684); test: CYP inhibition test (CYP3A4); type: in vitro ADME; details: pooled human liver microsomes; terfenadine hydroxylation
T1 construct: The commercially available pooled human liver microsomes are used as an enzyme resource; from tissue; host or cells: pooled human liver microsomes
Outline: (§1)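 Pooled human liver microsomes (0.2 mg protein/mL) with compound at 1, 5, 10 and 20 μmol/L and NADPH, at 37 °C. Marker substrates: dextromethorphan 5 μmol/L (2D6), terfenadine 1 μmol/L (3A4), S-mephenytoin 50 μmol/L (2C19), tolbutamide 100 μmol/L (2C9). Metabolites were measured by LC/MS/MS, and IC50 was derived by logistic fit of remaining activity against the DMSO control.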

[4] = target: T2, CYP2C19 (Homo sapiens, UniProt P33261); test: CYP inhibition test (CYP2C19); type: in vitro ADME; details: pooled human liver microsomes; mephenytoin 4′-hydroxylation
T2 construct: The commercially available pooled human liver microsomes are used as an enzyme resource; from tissue; host or cells: pooled human liver microsomes
Outline: as §1

[5] = target: T3, human ether-a-go-go related gene (hERG) channel (Homo sapiens, UniProt Q12809); test: hERG test; type: cell-based; details: % inhibition of IKr tail peak current at 3 uM; CHO cells expressing hERG
T3 construct: expressed in transfected cells; host or cells: CHO cells
Outline: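 Automated whole-cell patch clamp was run on CHO cells carrying human hERG, held at −80 mV. Current was recorded during the −50 mV repolarization (2 s) that followed a 2 s +20 mV step, after a −50 mV leak pulse.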

[6] = target: T4, CYP1A2 (Homo sapiens, UniProt P05177); test: CYP inhibition test (CYP1A2); type: in vitro ADME; details: pooled human liver microsomes; 7-ethoxyresorufin O-deethylation
T4 construct: The commercially available pooled human liver microsomes are used as an enzyme resource; from tissue; host or cells: pooled human liver microsomes
T4 sequence (P05177 1-516): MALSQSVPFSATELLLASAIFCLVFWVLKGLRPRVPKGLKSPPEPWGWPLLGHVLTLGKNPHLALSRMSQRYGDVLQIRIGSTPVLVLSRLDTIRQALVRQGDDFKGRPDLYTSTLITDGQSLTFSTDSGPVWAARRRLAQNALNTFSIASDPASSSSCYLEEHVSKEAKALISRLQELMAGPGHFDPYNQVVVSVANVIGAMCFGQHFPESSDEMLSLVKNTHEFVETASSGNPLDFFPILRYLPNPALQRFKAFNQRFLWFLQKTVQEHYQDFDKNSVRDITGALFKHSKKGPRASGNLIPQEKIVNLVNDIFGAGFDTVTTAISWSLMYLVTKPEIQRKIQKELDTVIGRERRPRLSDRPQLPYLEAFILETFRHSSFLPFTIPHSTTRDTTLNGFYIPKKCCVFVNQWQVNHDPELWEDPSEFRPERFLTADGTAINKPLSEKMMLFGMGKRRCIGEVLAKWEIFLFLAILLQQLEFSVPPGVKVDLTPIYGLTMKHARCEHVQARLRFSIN
Outline: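 Inhibition of CYP1A2 was measured in commercially available pooled human liver microsomes (0.2 mg protein/mL) using 7-ethoxyresorufin O-deethylation with 0.5 μmol/L ethoxyresorufin. Test compound at 1, 5, 10, 20 μmol/L in […] Hepes buffer was incubated at 37° C. after NADPH addition; methanol/acetonitrile=1/1 (v/v) stopped the reaction, and resorufin was read fluorescently.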

[7] = JP 1st fluid, 25 °C, pH 1.2, simulated gastric fluid, kinetic from dmso stock, read-out: JP1
[8] = JP 2nd fluid A, 25 °C, pH 6.8, aqueous buffer, kinetic from dmso stock, read-out: JP2_μM
[9] = JP 1st fluid, pH 1.2, simulated gastric fluid, kinetic from dmso stock, read-out: JP1
[10] = solubility in JP 2nd fluid B, 1% DMSO, *2: shaken for 1 hour at room temperature, read-out: JP2_μM
[11] = JP 2nd fluid B, pH 6.8, aqueous buffer, kinetic from dmso stock, read-out: JP2_μM
[12] = JP 2nd fluid A, pH 6.8, aqueous buffer, kinetic from dmso stock, read-out: JP2_μM

T3 sequence (Q12809 whole entry): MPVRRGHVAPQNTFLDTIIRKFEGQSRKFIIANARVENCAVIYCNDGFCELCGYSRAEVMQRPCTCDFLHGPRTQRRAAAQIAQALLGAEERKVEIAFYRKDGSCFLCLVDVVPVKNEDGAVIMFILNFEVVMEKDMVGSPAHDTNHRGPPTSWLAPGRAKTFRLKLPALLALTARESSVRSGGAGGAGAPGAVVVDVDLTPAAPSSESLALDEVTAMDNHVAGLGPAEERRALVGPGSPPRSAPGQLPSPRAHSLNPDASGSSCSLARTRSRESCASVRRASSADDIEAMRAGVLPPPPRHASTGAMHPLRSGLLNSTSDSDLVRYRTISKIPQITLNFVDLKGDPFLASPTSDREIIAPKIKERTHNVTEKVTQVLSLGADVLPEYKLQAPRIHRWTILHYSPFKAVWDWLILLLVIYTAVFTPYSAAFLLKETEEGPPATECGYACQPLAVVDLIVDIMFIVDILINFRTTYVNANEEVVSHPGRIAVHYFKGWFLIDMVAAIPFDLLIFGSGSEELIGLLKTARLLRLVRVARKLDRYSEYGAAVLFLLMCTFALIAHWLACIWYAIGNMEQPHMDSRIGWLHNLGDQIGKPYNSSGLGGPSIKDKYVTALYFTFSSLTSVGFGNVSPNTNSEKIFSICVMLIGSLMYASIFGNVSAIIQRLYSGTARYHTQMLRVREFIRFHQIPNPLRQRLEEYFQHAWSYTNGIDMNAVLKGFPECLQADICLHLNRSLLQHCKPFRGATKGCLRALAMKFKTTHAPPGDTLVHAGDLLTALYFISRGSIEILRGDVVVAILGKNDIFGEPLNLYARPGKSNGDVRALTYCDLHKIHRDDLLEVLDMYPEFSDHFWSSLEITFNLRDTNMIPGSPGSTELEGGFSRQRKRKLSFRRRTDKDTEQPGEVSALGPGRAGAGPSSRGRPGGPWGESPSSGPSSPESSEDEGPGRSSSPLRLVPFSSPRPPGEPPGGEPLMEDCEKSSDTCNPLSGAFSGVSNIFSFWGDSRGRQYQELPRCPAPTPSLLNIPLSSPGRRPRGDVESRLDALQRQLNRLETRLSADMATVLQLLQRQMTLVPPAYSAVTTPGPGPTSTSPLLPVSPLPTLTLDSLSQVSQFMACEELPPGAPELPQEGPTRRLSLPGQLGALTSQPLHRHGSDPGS
T1 sequence (P08684 whole entry): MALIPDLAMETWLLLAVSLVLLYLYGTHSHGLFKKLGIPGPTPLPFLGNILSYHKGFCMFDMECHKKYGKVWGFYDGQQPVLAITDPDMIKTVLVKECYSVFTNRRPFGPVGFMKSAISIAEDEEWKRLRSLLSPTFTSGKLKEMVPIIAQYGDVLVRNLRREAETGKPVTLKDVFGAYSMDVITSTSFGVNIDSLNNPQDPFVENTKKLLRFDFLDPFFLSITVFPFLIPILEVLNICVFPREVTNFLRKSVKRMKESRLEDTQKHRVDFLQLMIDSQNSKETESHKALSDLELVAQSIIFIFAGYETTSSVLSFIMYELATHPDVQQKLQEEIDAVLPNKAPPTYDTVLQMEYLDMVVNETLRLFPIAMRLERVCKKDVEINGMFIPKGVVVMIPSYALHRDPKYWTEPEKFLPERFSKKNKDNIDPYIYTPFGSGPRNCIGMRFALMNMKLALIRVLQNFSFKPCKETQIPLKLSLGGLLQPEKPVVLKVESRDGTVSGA
T2 sequence (P33261 whole entry): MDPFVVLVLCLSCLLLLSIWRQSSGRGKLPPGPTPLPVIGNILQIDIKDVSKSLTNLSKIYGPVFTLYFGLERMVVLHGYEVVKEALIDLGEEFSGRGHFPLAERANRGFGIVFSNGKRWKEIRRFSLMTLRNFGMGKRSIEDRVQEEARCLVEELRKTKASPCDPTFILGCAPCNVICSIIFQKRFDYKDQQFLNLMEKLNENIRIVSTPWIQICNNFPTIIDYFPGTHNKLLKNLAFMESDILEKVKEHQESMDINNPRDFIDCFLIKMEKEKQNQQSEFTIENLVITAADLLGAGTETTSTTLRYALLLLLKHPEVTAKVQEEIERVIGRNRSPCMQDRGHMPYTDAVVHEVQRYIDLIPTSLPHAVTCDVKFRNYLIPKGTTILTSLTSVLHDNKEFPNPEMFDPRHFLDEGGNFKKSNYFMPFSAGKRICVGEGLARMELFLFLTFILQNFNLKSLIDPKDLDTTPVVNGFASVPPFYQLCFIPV

Structure (SMILES)	solubility kinetic at 16 h [1, 7]	solubility kinetic at 16 h [1, 8]	remaining % [2]	pIC50 [3]	pIC50 [4]	hERG_3 uM_% [5]	pIC50 [6]	solubility kinetic at 1 h [1, 9]	solubility kinetic at 16 h [1, 10]	solubility kinetic at 1 h [1, 11]	solubility kinetic at 1 h [1, 12]
CO[C@H]1[C@@H](CF)OC(N)=N[C@]1(C)c1cc(NC(=O)c2ccc(F)cn2)ccc1F [Compound I-25]	46.7 µM (≈ 19.1 µg/mL)	> 50 µM	89.1%	≤ 4.70	≤ 4.70	41.9%	≤ 4.70				
Cc1nc(C(=O)Nc2ccc(F)c([C@@]3(C)N=C(N)O[C@H](C(F)(F)F)[C@@H]3C)c2)co1 [Compound I-32]	> 50 µM	> 50 µM	94.6%	≤ 4.70	≤ 4.70	15.2%	≤ 4.70				
C[C@H]1SC(N)=N[C@](C)(c2cc(NC(=O)c3ncc(C#N)cc3Cl)ccc2F)[C@H]1F [Compound I-64]			80.3%	≤ 4.70	≤ 4.70	41.3%		> 50 µM	>50 µM		
CO[C@H]1[C@@H](CF)OC(N)=N[C@]1(C)c1cc(NC(=O)c2cnc(OCF)cn2)ccc1F [Compound I-24]	38.8 µM (≈ 17 µg/mL)	> 50 µM	95.5%	≤ 4.70	≤ 4.70	6.7%	≤ 4.70				
CC(F)(F)[C@H]1OC(N)=N[C@](C)(c2cc(NC(=O)c3cnc(OCC(F)F)cn3)ccc2F)[C@H]1F [Compound I-77]			93.1%		≤ 4.70	44.1%	≤ 4.70	> 50 µM		11.1 µM (≈ 5.45 µg/mL)	
C[C@]1(c2cc(NC(=O)c3ccc(C#N)cn3)ccc2F)N=C(N)O[C@H](C(F)(F)C2CC2)[C@@H]1F [Compound I-81]			101%	≤ 5.00	≤ 4.70	49.3%	≤ 4.70	> 50 µM		19.3 µM (≈ 8.91 µg/mL)	
C[C@H]1SC(N)=N[C@](C)(c2cc(NC(=O)c3cnc(C(F)F)cn3)ccc2F)[C@H]1F [Compound I-65]			96.5%	≤ 4.70	≤ 4.70	28%		> 50 µM	>50 µM		
C[C@]1(c2cc(NC(=O)c3cnc(OCF)cn3)ccc2F)N=C(N)O[C@H](C(F)(F)C2CC2)[C@@H]1F [Compound I-82]			96.5%		≤ 4.70	17.5%	≤ 4.70	> 50 µM	>50 µM		
C[C@H]1SC(N)=N[C@](C)(c2cc(NC(=O)c3cnc(OCC4CC4)cn3)ccc2F)[C@H]1F [Compound I-85]			93.2%		≤ 4.70	41.4%	≤ 4.70	47.2 µM (≈ 21.1 µg/mL)		0.6 µM (≈ 0.269 µg/mL)	
CC[C@H]1SC(N)=N[C@](C)(c2cc(NC(=O)c3ccc(OCF)cn3)ccc2F)[C@H]1F [Compound I-67]			69%		≤ 4.70	56.5%	≤ 4.70	> 50 µM	>50 µM		
C[C@H]1[C@@H](C(F)(F)F)OC(N)=N[C@]1(C)c1cc(NC(=O)c2cnc(OCF)cn2)ccc1F [Compound I-41]			105%			24.8%		> 50 µM			> 50 µM
C[C@H]1SC(N)=N[C@](C)(c2cc(NC(=O)c3cnc(OCC(F)(F)F)cn3)ccc2F)[C@H]1F [Compound I-46]			97.8%		≤ 4.70	33.4%	≤ 4.70	> 50 µM			8.3 µM (≈ 3.95 µg/mL)
COc1cnc(C(=O)Nc2ccc(F)c([C@@]3(C)N=C(N)O[C@H](C(F)(F)C4CC4)[C@@H]3F)c2)cn1 [Compound I-83]			55.3%		≤ 4.70	18.1%	≤ 4.70	> 50 µM		29.6 µM (≈ 13.8 µg/mL)	
C[C@H]1SC(N)=N[C@](C)(c2cc(NC(=O)c3ccc(F)cn3)ccc2F)C12CC(F)(F)C2 [Compound I-63]			75.8%		≤ 4.70	53.2%	≤ 4.70	> 50 µM	>50 µM		
C[C@H]1[C@@H](C(F)F)OC(N)=N[C@]1(C)c1cc(NC(=O)c2ccc(C#N)cn2)ccc1F [Compound I-31]	38.8 µM (≈ 16.2 µg/mL)	> 50 µM	85%	≤ 4.70	≤ 4.70	27.4%					
C[C@@]1(c2cc(NC(=O)c3ccc(C#N)cn3)ccc2F)C[C@@](C)(C(F)(F)F)OC(N)=N1 [Compound I-7]	> 50 µM	> 50 µM	82%			47.4%					
COCC(F)(F)[C@H]1OC(N)=N[C@](C)(c2cc(NC(=O)c3cnc(OCF)cn3)ccc2F)[C@H]1F [Compound I-79]				≤ 5.00	≤ 4.70	7.8%	≤ 4.70	> 50 µM	>50 µM		
CC(F)(F)[C@H]1OC(N)=N[C@](C)(c2cc(NC(=O)c3cnc(OCC(F)(F)F)cn3)ccc2F)[C@H]1F [Compound I-75]			85.2%		≤ 4.70	21.3%	≤ 4.70	> 50 µM		3 µM (≈ 1.53 µg/mL)	

From patent US20170073337A1, “DIHYDROTHIAZINE AND DIHYDROOXAZINE DERIVATIVES HAVING BACE1 INHIBITORY ACTIVITY” (Shionogi & Co., Ltd., priority 2014, published 2017)
